Reference: US10632106B2, “Methods of cancer treatment with 2-(1′H-Indole-3′-carbonyl)-thiazole-4-carboxylic acid methyl ester” (Ariagen, Inc., priority 2009, dated 2020)

What was measured:
Format in all cases: in vivo
[1] = test system: SGC7901 (human stomach cancer) xenografts; assay: SGC7901 xenograft growth inhibition; conditions: ITE 100-200 mg/kg i.p. once daily
Protocol: (§1) All the procedures related to animal handling, care, and the treatment in the study were performed following guidelines of KeyGen Biotechn Co., Ltd. (Nanjing, China), a contract research organization we hired, based on the guidance of the Association for Assessment and Accreditation of Laboratory Animal Care (AAALAC). Animals were checked for any effects of tumor growth and drug treatment on normal behavior such as mobility, food and water consumption, body weight gain/loss (bodyweights were measured every two days), eye/hair matting, and any other abnormal effect. Death and observed clinical signs were recorded. Individual animals with a tumor volume exceeding 3,000 mm^3 or animals of a group with a mean tumor volume exceeding 2,000 mm^3 were euthanized. In addition, animals showing signs of severe distress and/or pain or losing the capability of accessing adequate food or water were humanely sacrificed.
(§2) Cell lines HCT116, Siha, MFC were cultured in DMEM medium (high glucose) supplemented with 10% fetal bovine serum (FBS), SW116 and T24 in RPMI-1640 medium with 10% FBS, M14 and A375 in DMEM medium (high glucose) with 10% calf serum (CS), SGC7901 and Ketr-3 in RPMI-1640 medium with 10% CS, and CFPAC-1 in IMDM medium with 10% FBS. All of the cells were cultured, in the presence of 100 U/ml penicillin and 100 μg/ml streptomycin, at 37° C. in an atmosphere of 5% CO2 in air. […] The cells growing in an exponential phase were harvested and counted for tumor inoculation. Cell lines 5180 and U14 were maintained in ascites (peritoneal cavity fluid) of mice and were harvested and counted for tumor inoculation. […]
(§3) Tumor volume was measured every two days in two dimensions using a caliper and the volume was calculated with a formula of: V=0.5 a×b^2, where a and b are the long and short diameter (in mm) of a tumor, respectively. […] The TGD was calculated as: TGD=T−C, where T was the time (in days) required for tumors in a drug treated group to reach a predetermined mean tumor volume and C the time (in days) in the control group to reach the same volume. […]

[2] = test system: HCT116 (human colon cancer) xenografts; assay: HCT116 xenograft growth inhibition; conditions: ITE 100-200 mg/kg i.p. once daily
Protocol: as §1, §2, §3

[3] = Mouse cancer model studies of Example 5, all models: animal death; conditions: any model, entire therapies; with oral gavage of 20 ml/kg water
Protocol: as §1
Each mouse was inoculated subcutaneously in right armpit with about 1×10^6 cells in 0.1 ml of PBS for tumor development. While cells of human in origin were inoculated into female BALB/c nude mice, MFC cells were inoculated into female 615 mice and U14 and 5180 cells into female ICR mice. When a mean tumor volume reached 50 to 150 mm^3 as indicated, the tumor-bearing mice were divided randomly into vehicle control and ITE treatment group. […]

[4] = TGI at day 18, TGI=(1−ΔT/ΔC)×100%
[5] = end of therapy relative to beginning

Structure (SMILES): COC(=O)c1csc(C(=O)c2c[nH]c3ccccc23)n1 [ITE, 2-(1′H-indole-3′-carbonyl)-thiazole-4-carboxylic acid methyl ester]
- TGD ([1]; TGD at Vol. 1,000): 4 days
- TGI (%) [1, 4]: 50%
- Weight Loss [1, 5]: 12%
- TGD ([2]; TGD at Vol. 1,000): 3 days
- TGI (%) [2, 4]: 41%
- Weight Loss [2, 5]: 9%
- animal death in ITE treatment group [3]: no single animal death
